Measurements reported in article doi:10.1101/2021.09.15.460527v1 (bioRxiv, 2021).
Starred links: 1 amine or outer side, 2 acyl side, 3 side chain; linkers in the order of their positions; H or OH if unused. Groups on a side chain read outwards from the residue. No end group written: not given here. *: point of attachment. γGlu = O=C(O)[C@H](CCC(=O)[*:2])N[*:1]; Palmitoyl = CCCCCCCCCCCCCCCC(=O)*

Tested on: rats with heroin self-administration experience
Assay: Cue-induced heroin seeking
Type: in vivo, rat
Conditions: 0.3 mg/kg sc

“liraglutide (HAEGTFTSDVSSYLEGQAAK([γGlu-Palmitoyl])EFIAWLVRGRG; chains of the INN, looked up)” was tested, and the “Minimum effective pretreatment time” value was “between four and six”.
